Measurements published in patent US9434687B2, “Detection of synthetic cannabinoids” (priority 2011, dated 2016).

Tests used:
Type in all cases: binding, sheep
[1] = test system: antibodies raised to Immunogens I & II; test: Competitive ELISA, selected molecules as potential cross-reactants (Table 3); details: for % CR / IC50: Table 3, standard conc 750.00 ng/ml
Method: (a) The wells of an enhanced binding 96 well polystyrene microtiter plate were coated with the Ig fraction of the antiserum raised to Immunogen I (Hapten A-BTG—example 5) and diluted in 10 mM Tris, pH8.5 (125 μl/well). The appropriate antibody coating concentration was determined using standard ELISA checkerboard techniques. The plate was incubated for 2 hours at 37° C., washed 4 times over a 10-minute period with Tris buffered saline containing Tween 20 (TBST) and tapped dry. Standard solutions of JWH synthetic cannabinoids, metabolites and selected molecules were prepared in TBST and 50 μl of each was added to the appropriate wells. 75 μl of conjugate (Hapten A-HRP) diluted in Tris buffer containing EDTA, D-mannitol, sucrose, thimerosal and BSA, was added to each of the wells. The appropriate dilution of conjugate was also determined using standard ELISA checkerboard techniques. The plate was incubated at 25° C. for 1 hour. The excess unbound conjugate was removed by washing 6 times over a 10-minute period with TBST and tapped dry. 125 μl of tetramethylbenzedine (TMB) substrate solution was added to each well of the plate that was then incubated for 15-20 minutes in the dark at room temperature. The reaction was terminated by addition of 125 μl of 0.2M sulphuric acid to each well. The absorbance was then measured at 450 nm using a microtiter plate reader.
Employing each series of standards, calibration curves were generated and these were used to determine the specificity of the immunoassay for the JWH synthetic cannabinoids, metabolites and selected molecules. The results of this study are presented in Tables 1 to 3, cross-reactivity being calculated according to the following formula: % CR=IC50,JWH-018/IC50,CR×100
Where % CR is the percentage cross-reactivity, IC50, JWH-018 is the concentration of JWH-018 that causes 50% displacement of signal and IC50, CR is the concentration of JWH synthetic cannabinoid/metabolite/selected molecule that causes 50% displacement of signal.
The antibody produced from Immunogen I is able to bind to JWH molecules known to be incorporated in herbal therapeutics such as JWH-018, proposed metabolites such as M2 (Wintermeyer et al 2010), and potential metabolites such as M5. The detection and quantification of other JWH SSCs is also provided for, the antibodies of the invention bind a range of molecules comprising the 3-(1-naphthoyl)-1H-indole structure (e.g. JWH-071, JWH-398, M1 etc.). […] The concept of using the antibodies of the invention to detect and determine future stealth synthetic cannabinoids is highlighted in Table 4; the 5-fluoropentyl derivative known to bind the CB 1 receptor, but which as of yet has not been detected in herbal therapeutics or similar substances, binds to antibodies raised from Immunogens I and II.

[2] = test system: IgG fraction of antiserum raised to Immunogen VIII; details: Antibody to Immunogen VIII; cross-reactants at 100 ng/ml; 1000 ng/ml; standard JWH-018
[3] = test system: IgG fraction of antiserum raised to Immunogen VII; details: Antibody to Immunogen VII; cross-reactants at 100 ng/ml; 1000 ng/ml; standard JWH-015
[4] = test system: IgG fraction of antiserum raised to Immunogen IV; details: Antibody to Immunogen IV; cross-reactants at 100 ng/ml; 1000 ng/ml; standard JWH-018
[5] = test system: IgG fraction of antiserum raised to Immunogen I; details: Antibody to Immunogen I; cross-reactants at 100 ng/ml; 1000 ng/ml; standard JWH-018
Outline: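 Plates were coated with the IgG fraction of sheep antiserum raised to Immunogen I and incubated with standards (JWH-018, 0-40 ng/ml) plus hapten-HRP conjugate for 1 h at 25° C. Detection used TMB, read at 450 nm. IC50 was taken from a 4-parameter fit as the concentration giving half the zero-standard OD.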

[6] = test system: IgG fraction of antiserum raised to Immunogen II; test: Competitive ELISA, antibody RS1833B12 to Immunogen II, tracer ESC4555 (Example 36); details: Antibody to Immunogen II; cross-reactants at 100 ng/ml; 1000 ng/ml; standard JWH-018
Method: An aqueous solution of each immunogen was formulated with Freund's Complete Adjuvant (FCA) to form an emulsion consisting of 2 mg/ml*immunogen in 50% (v/v) FCA. Three sheep were immunised with this emulsion (1° immunisation), 0.25 ml being intramuscularly injected at each of four sites in the flank of each animal. Subsequent immunizations (boosts) contained 1 mg/ml*immunogen. All boosts were emulsified in 50% (v/v) Freund's Incomplete Adjuvant (FIA) and were administered in the same manner as the 1° immunisation, at monthly intervals. Blood sampling took place 7 to 14 days after each boost. *The general procedure for immunogen administration is outlined above, however, it was necessary to deviate from this protocol in some cases, due to reduced immunogen concentrations (Immunogens II, IV, VII and VIII) and/or amount available (Immunogen VIII). Any deviations from the protocol described are outlined in Table 5 below and highlighted in bold.
The appropriate antibody coating dilution was determined using standard ELISA checkerboard techniques. The plate was incubated overnight at 4° C., washed 4 times over 10 minutes with Tris buffered saline containing Tween 20 (TBST) and tapped dry. […] 75 μl of conjugate (appropriate hapten-HRP) diluted in Tris buffer (pH 7.2) containing EDTA, D-mannitol, sucrose, thimerosal and BSA, was added to each of the wells. The appropriate dilution of conjugate was also determined using standard ELISA checkerboard techniques. The plate was incubated at 25° C. for 1 hour. Excess unbound conjugate was removed by washing 6 times over a 10 minute period with TBST. 125 μl of tetramethylbenzidine (TMB) substrate solution was added to each well of the plate that was then incubated for 20 minutes in the dark at room temperature. The reaction was terminated by addition of 125 μl 0.2M H2SO4 to each well. The absorbance was then measured at 450 nm using a microtiter plate reader. The data are inputted to a computer program called ‘KC Junior’. It is a 4 parameter fit curve and allow the calculation of concentrations between the standard runs.
In a similar manner to that described above, the wells of a 96-well microtiter plate were coated with the IgG fraction of the antiserum raised to Immunogens I or II.
The data set out in Tables 7-10 are generated using antibodies raised against the indicated Immunogens in a competitive binding assay with the indicated tracers, using the indicated standards
Using the calibration curves generated and employing a single level of cross reactants, these were used to determine the cross-reactivity of each immunoassay with these substances. These are the standards used for the IC50 and cross-reactivity data generation: […]

Row | SMILES | % CR [1] | IC50 [1] | % B/B0 [2] | % B/B0 [3] | % B/B0 [4] | % B/B0 [5] | % B/B0 [6] | binding / cross-reaction with antibodies raised from Immunogens I and II (in words) [1]
1 | CCCCCn1cc(C(=O)O)c2ccccc21 [3-Carboxy-N-pentyl-1H-indole, 3-carboxy-1-pentyl-1H-indole] | <0.28% | >0.75 µg/mL |  |  |  |  |  | 
2 | COc1cccc2[nH]cc(CCN(C)C)c12 [4-Methoxypsilocin] | <0.28% | >0.75 µg/mL |  |  |  |  |  | 
3 | O=C(O)Cc1c[nH]c2ccc(O)cc12 [5-hydroxyindole-3-acetic acid] | <0.28% | >0.75 µg/mL | 108.24% | 99.46% | 96.61% | 98.71% |  | 
4 | CCCCCc1cc(O)c2c(c1)OC(C)(C)[C@@H]1CCC(CO)=C[C@@H]21 [11-Hydroxy-δ-9-THC] | <0.28% | >0.75 µg/mL |  |  |  |  |  | 
5 | CCCCn1c(C)c(C(=O)c2cccc3ccccc23)c2ccccc21 [JWH-016] |  |  | 75.24% | 19.31% | 91.14% | 20.71% | 68.73% | 
6 | CCCCCn1cc(C(=O)c2cccc3ccccc23)c2ccc(OC)cc21 [JWH-018 6-methoxyindole analogue] |  |  | 77.22% | 72.33% | 90.65% | 10.55% | 20.44% | 
7 | CC(C)(C)Cn1cc(C(=O)c2cccc3ccccc23)c2ccccc21 [JWH-018 N-(2,2-dimethylpropyl) isomer] |  |  | 95.09% | 52.46% | 80.42% | 3.89% | 60.15% | 
8 | CCCCCCn1cc(C(=O)c2cccc3ccccc23)c2ccccc21 [JWH-019] |  |  | 74.50% | 70.05% | 21.96% | 7.22% | 15.42% | 
9 | CCCCCCCn1cc(C(=O)c2cccc3ccccc23)c2ccccc21 [JWH-020] |  |  | 100.73% | 81.30% | 73.73% | 16.03% | 35.75% | 
10 | C=CCCCn1cc(C(=O)c2cccc3ccccc23)c2ccccc21 [JWH-022] |  |  | 28.94% | 58.44% | 10.61% | 4.51% | 11.72% | 
11 | CCn1cc(C(=O)c2cccc3ccccc23)c2ccccc21 [JWH-071] |  |  |  |  |  |  |  | bind
12 | CC(O)CCn1cc(C(=O)c2cccc3ccccc23)c2ccccc21 (stereo not drawn) [JWH-073 N-(3-hydroxybutyl) metabolite] |  |  | 94.04% | 43.39% | 53.52% | 3.10% | 54.52% | 
13 | O=C(c1cccc2ccccc12)c1cn(CCCCO)c2ccccc12 [JWH-073 N-(4-hydroxybutyl) metabolite] |  |  | 57.99% | 48.81% | 52.61% | 3.22% | 60.01% | 
14 | O=C(O)CCCn1cc(C(=O)c2cccc3ccccc23)c2ccccc21 [JWH-073 N-butanoic acid metabolite] |  |  | 94.98% | 60.01% | 98.95% | 6.88% | 92.20% | 
15 | CCCCCn1cc(C(=O)c2cccc3c(OC)cccc23)c2ccccc21 [JWH-081 5-methoxynaphthyl isomer] |  |  | 26.56% | 94.16% | 6.24% | 18.51% | 60.90% | 
16 | Cc1ccc(C(=O)c2cn(CCCCCO)c3ccccc23)c2ccccc12 [JWH-122 N-(5-hydroxypentyl) metabolite] |  |  | 48.67% | 83.65% | 25.72% | 42.80% | 71.76% | 
17 | CCCCCn1cc(C(=O)c2ccc(C)c3ccccc23)c2ccccc21 [JWH-122] |  |  | 14.43% | 89.37% | 3.94% | 62.98% | 44.55% | 
18 | O=C(c1cccc2ccccc12)c1cn(CCN2CCOCC2)c2cccc(O)c12 [JWH-200 4-hydroxyindole metabolite] |  |  | 91.82% | 91.15% | 87.88% | 44.97% | 78.17% | 
19 | O=C(c1cccc2ccccc12)c1cn(CCN2CCOCC2)c2ccc(O)cc12 [JWH-200 5-hydroxyindole metabolite] |  |  | 90.88% | 82.42% | 97.53% | 12.61% | 64.99% | 
20 | O=C(c1cccc2ccccc12)c1cn(CCN2CCOCC2)c2cc(O)ccc12 [JWH-200 6-hydroxyindole metabolite] |  |  | 83.20% | 65.52% | 94.41% | 7.27% | 61.65% | 
21 | CCCCCn1cc(C(=O)c2cccc3c(Cl)cccc23)c2ccccc21 [JWH-398 5-chloronaphthyl isomer] |  |  | 19.67% | 91.33% | 7.06% | 35.53% | 23.50% | 
22 | O=C(c1ccc(Cl)c2ccccc12)c1cn(CCCCCO)c2ccccc12 [JWH-398 N-(5-hydroxypentyl) metabolite] |  |  | 51.33% | 82.97% | 22.01% | 48.07% | 67.49% | 
23 | CCCCCn1cc(C(=O)c2ccccc2OC)c2ccccc21 [RCS-4 2-methoxy isomer] |  |  | 29.32% | 87.27% | 15.28% | 29.14% | 42.74% | 
24 | NCCc1c[nH]c2ccc(O)cc12 [Serotonin] | <0.28% | >0.75 µg/mL |  |  |  |  |  | 
